Measured values taken from patent publication US10213415B2, “Compounds as opioid receptor modulators” (JANSSEN PHARMACEUTICA NV, priority 2004, dated 2019).
pEC50, pKi: −log10 of the molar value.

Key:
[1] = target: T1, delta opioid receptor (NG108-15 cell membranes) (Mus musculus, UniProt P32300); experiment: Delta Opioid Receptor Functional Assay: [35S]GTPγS Binding in NG108-15 Cell Membranes, Version 2; assay type: biochemical; conditions: NG108-15 cell membranes, version 2; for pEC50: [35S]GTPγS, read-out: DOR GTP-binding Assay_v2_ EC50; for DOR GTP-binding Assay v2 (% I): % inhibition of agonist-stimulated GTPγS binding
T1 construct: NG108-15 cell membranes were purchased from Applied Cell Sciences (Rockville, Md.); host or cells: NG108-15 cells (membranes purchased)
Procedure: NG108-15 cell membranes were purchased from Applied Cell Sciences (Rockville, Md.). 8 mg/ml of membrane protein suspended in 10 mM TRIS-HC pH 7.2, 2 mM EDTA, 10% sucrose.
Membranes were maintained at 4-8° C. A portion (1 ml) of membranes was added into 10 ml cold binding assay buffer. The assay buffer contained 50 mM Tris, pH 7.6, 5 mM MgCl2, 100 mM NaCl, 1 mM DTT and 1 mM EGTA. The membrane suspension was homogenized with a Polytron for 2 times and centrifuged at 3000 rpm for 10 min. The supernent was then centrifuged at 18,000 rpm for 20 min. The pellet was saved in a tube and 10 ml assay buffer was added into the tube. The pellet and buffer were mixed with a Polytron.
The pellet membranes (75 μg/ml) were preincubated with SPA (10 mg/ml) at 25° C. for 45 min in the assay buffer. The SPA (5 mg/ml) coupled with membranes (37.5 μg/ml) was then incubated with 0.1 nM [^35S] GTPγS in the same Tris buffer containing 100 μM GDP in total volume of 200 μl. Increasing concentrations of receptor agonists were used to stimulate [^35S] GTPγS binding. The basal binding was tested in the absent agonists and no specific binding was tested in the present 10 μM unlabeled GTPγS. The data were analyzed on a Top counter.
[formula] % Inhibition=(% stimulation by 1 μM SNC80−% stimulation by 1 μM SNC80 in presence of test compound)×100/(% Stimulation by 1 μM SNC80−100) % of Basal=(stimulate−non specific)*100/(basal−non specific). EC50 values were calculated using GraphPad Prism.

[2] = target: T2, delta opioid receptor (Rattus norvegicus, UniProt P33533); experiment: Rat Brain Delta Opioid Receptor Binding Assay ([3H]DPDPE); conditions: rat forebrain membranes, margin of error 10-20%, read-out: r Ki δ
T2 construct: from tissue; host or cells: forebrain of male Wistar rats
Method in brief: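 Rat (male Wistar) forebrain membranes in 50 mM Tris-HCl pH 7.4 with 5 mM MgCl2, incubated with ~4 nM [3H]DPDPE for 2.5 h at 25 °C. Bound ligand collected by filtration and scintillation counting. Single-concentration data given as % inhibition of specific binding; concentration series fitted to Ki.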

[3] = target: T3, human mu opioid receptor (Homo sapiens, UniProt P35372); experiment: Human Mu Opioid Receptor Binding Assay (CHO membranes, 3H-Damgo); conditions: read-out: hKi μ
T3 construct: purchased Perkin Elmer RBHOMM400UA; host or cells: Chinese Hamster Ovary cells (recombinant expression)
Method in brief: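 Radioligand displacement of ³H-Damgo (diluted to 3.6 nM pre-mix) from recombinant human mu receptor in CHO membranes, 2 h, room temperature, 50 mM Tris pH 7.5 with 5 mM MgCl2. Bound label read by filtration and scintillation counting; 1 μM unlabelled Damgo defines nonspecific binding.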

[4] = target: T4, mu opioid receptor (Rattus norvegicus, UniProt P33535); experiment: Rat Brain Mu Opioid Receptor Binding Assay (and Version 2a, [3H]DAMGO); conditions: rat forebrain membranes, margin of error 10-20%, read-out: r Ki μ
T4 construct: from tissue; host or cells: forebrain of male Wistar rats
Method in brief: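 Displacement of the mu-selective radioligand [3H]DAMGO (0.8 nM) measured by filtration and scintillation counting after 2.5 h at 25° C. Membranes came from male Wistar rat forebrain in Tris-HCl (50 mM, pH 7.4) plus 5 mM MgCl2; Ki derived from concentration–response, % inhibition for single doses.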

[5] = target: T5, mu opioid receptor (CHO-hMOR cell membranes) (Homo sapiens, UniProt P35372); experiment: Mu Opioid Receptor Functional Assay: [35S]GTPγS Binding in CHO-hMOR Cell Membranes, Versions 1 and 2; assay type: biochemical
T5 construct: purchased Receptor Biology, Inc. (Baltimore, Md.); host or cells: CHO cells (recombinant expression)
Method in brief: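 Agonist-stimulated [35S]GTPγS (0.5 nM) binding measured by SPA in human MOR CHO membranes, buffer pH 7.6 with 100 mM NaCl, 5 mM MgCl2. Antagonist mode: % inhibition of stimulation by 1 μM SNC80; agonist mode: EC50 fitted. Basal binding without agonist, non-specific with 10 μM cold GTPγS.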

T2 sequence (P33533 whole entry): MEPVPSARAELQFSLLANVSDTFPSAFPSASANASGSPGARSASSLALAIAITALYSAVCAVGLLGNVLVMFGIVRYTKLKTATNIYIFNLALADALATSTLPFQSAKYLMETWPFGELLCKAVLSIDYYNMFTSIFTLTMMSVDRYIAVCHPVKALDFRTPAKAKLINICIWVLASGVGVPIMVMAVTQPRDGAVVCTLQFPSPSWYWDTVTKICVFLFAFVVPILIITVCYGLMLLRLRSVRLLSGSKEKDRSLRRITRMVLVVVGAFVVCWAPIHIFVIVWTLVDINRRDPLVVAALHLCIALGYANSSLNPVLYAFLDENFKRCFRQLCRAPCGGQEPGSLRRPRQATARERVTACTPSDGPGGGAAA
T3 sequence (P35372 whole entry): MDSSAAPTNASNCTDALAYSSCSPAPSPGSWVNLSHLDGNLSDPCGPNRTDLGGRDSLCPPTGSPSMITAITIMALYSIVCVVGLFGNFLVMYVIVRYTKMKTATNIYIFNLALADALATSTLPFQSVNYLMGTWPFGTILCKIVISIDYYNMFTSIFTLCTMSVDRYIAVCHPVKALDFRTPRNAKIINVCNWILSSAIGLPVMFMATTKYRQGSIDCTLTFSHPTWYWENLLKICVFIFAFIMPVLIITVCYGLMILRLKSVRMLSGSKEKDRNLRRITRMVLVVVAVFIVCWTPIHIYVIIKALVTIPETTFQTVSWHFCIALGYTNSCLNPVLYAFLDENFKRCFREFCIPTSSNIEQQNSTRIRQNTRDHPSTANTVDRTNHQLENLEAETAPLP
T1 sequence (P32300 whole entry): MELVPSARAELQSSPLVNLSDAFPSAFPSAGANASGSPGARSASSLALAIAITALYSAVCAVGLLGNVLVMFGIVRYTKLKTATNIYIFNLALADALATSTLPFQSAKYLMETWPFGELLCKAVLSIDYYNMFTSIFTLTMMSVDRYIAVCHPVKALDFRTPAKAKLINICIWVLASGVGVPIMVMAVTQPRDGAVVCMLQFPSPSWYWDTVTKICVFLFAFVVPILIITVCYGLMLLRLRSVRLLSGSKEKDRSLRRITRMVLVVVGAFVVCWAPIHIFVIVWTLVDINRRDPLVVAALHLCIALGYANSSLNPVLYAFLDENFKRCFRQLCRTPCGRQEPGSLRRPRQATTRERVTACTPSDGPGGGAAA
T4 sequence (P33535 whole entry): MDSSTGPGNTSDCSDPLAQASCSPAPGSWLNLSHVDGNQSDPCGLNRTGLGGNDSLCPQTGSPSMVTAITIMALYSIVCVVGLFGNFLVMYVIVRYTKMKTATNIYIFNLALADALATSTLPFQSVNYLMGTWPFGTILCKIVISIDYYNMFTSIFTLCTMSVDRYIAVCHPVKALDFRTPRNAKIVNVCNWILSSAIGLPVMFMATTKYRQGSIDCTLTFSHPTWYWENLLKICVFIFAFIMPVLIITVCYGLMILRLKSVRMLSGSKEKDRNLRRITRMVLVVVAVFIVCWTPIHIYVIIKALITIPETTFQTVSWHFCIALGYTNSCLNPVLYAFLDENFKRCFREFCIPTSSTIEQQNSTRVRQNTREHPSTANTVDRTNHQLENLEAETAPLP
T5 sequence (P35372 whole entry): as the sequence (P35372 whole entry) above

In the case of `COC(=O)c1cccc(CN(C(=O)[C@@H](N)Cc2c(C)cc(C(N)=O)cc2C)[C@@H](C)c2nc(-c3ccccc3)c[nH]2)c1` [Cpd 9], the pEC50 [1] was 8.47, the “DOR GTP-binding Assay v2 (% I)” value [1] was 67.13% and the pKi [2] was 9.96. It also gave a pKi [3] of 7.96 and a pKi [4] of 9.80.

For `COc1ccc(CN(C(=O)[C@@H](N)Cc2c(C)cc(C(N)=O)cc2C)[C@@H](C)c2nc(-c3ccc(Br)cc3)c[nH]2)cc1C(=O)O` [Cpd 291], the pEC50 [1] was under 5.00, the “DOR GTP-binding Assay v2 (% I)” value [1] was 96.52% and the pKi [2] was 9.92. For the same compound, the pKi [4] was 9.33.

For `CCOc1cccc(CN(C(=O)[C@@H](N)Cc2c(C)cc(O)cc2C)[C@@H](C)c2nc(-c3ccccc3)c[nH]2)c1` [Cpd 251], the pEC50 [1] was 7.74, the “DOR GTP-binding Assay v2 (% I)” value [1] was 53.94% and the pKi [2] was 9.59. The pKi [4] was 10.10.

With `COc1ccc(CN(C(=O)[C@@H](N)Cc2c(C)cc(C(N)=O)cc2C)[C@@H](C)c2nc(-c3ccccc3)c[nH]2)cc1C(=O)NC1CC1` [Cpd 300] the “MOR GTP binding assay_v2 (% I)” value ([5]; version 2, % inhibition of agonist-stimulated GTPγS binding) was 15.40%, the pEC50 ([5]; version 2, read-out: MOR GTP binding assay v2 EC50) was 8.59 and the pEC50 [1] was 7.49. It also gave a pKi [2] of 9.54 and a pKi [4] of 10.05.

In the case of `COc1ccc(CN(C(=O)[C@@H](N)Cc2c(C)cc(O)cc2C)[C@@H](C)c2nc(-c3ccccc3)c[nH]2)c2ccccc12` [Cpd 247], the pEC50 [1] was 7.36, the “DOR GTP-binding Assay v2 (% I)” value [1] was 41.89% and the pKi [2] was 9.40. It also gave a pKi [4] of 9.21.

`Cc1cc(C(N)=O)cc(C)c1C[C@H](N)C(=O)N(Cc1ccccc1C(=O)O)[C@@H](C)c1nc(-c2ccccc2)c[nH]1` [Cpd 226] was tested, and the pEC50 [1] was under 5.00, the “DOR GTP-binding Assay v2 (% I)” value [1] was 19.71% and the pKi [2] was 7.32. For the same compound, the pKi [3] was 8.10.

In the case of `COc1ccc(CN(C(=O)[C@@H](N)Cc2c(C)cc(C(N)=O)cc2C)[C@@H](C)c2nc(-c3cccc(Br)c3)c[nH]2)cc1C(=O)O` [Cpd 288], the pEC50 [1] was under 5.00, the “DOR GTP-binding Assay v2 (% I)” value [1] was 74.54% and the pKi [2] was 9.77. For the same compound, the pKi [4] was 9.37.

With `Cc1cc(O)cc(C)c1C[C@H](N)C(=O)N(Cc1ccc(C(F)(F)F)cc1)[C@@H](C)c1nc(-c2ccccc2)c[nH]1` [Cpd 249] the pEC50 [1] was 8.10, the “DOR GTP-binding Assay v2 (% I)” value [1] was 20.14% and the pKi [2] was 9.74. It also gave a pKi [4] of 9.92.

For `COc1ccc(CN(C(=O)[C@@H](N)Cc2c(C)cc(C(N)=O)cc2C)[C@@H](C)c2nc(-c3ccccc3Br)c[nH]2)cc1C(=O)O` [Cpd 290], the pEC50 [1] was under 5.00, the “DOR GTP-binding Assay v2 (% I)” value [1] was 52.41% and the pKi [2] was 9.16. The pKi [4] was 9.37.

For `Cc1cc(O)cc(C)c1C[C@H](N)C(=O)N(Cc1ccc(OC(F)(F)F)cc1)[C@@H](C)c1nc(-c2ccccc2)c[nH]1` [Cpd 248], the pEC50 [1] was 7.82, the “DOR GTP-binding Assay v2 (% I)” value [1] was 31.72% and the pKi [2] was 9.36. It also gave a pKi [4] of 9.96.

In the case of `Cc1cc(C(N)=O)cc(C)c1C[C@H](N)C(=O)N(Cc1ccccc1C(N)=O)[C@@H](C)c1nc(-c2ccccc2)c[nH]1` [Cpd 1], the pEC50 [1] was 7.06, the “DOR GTP-binding Assay v2 (% I)” value [1] was 22.10% and the pKi [2] was 7.88. It also gave a pKi [3] of 8.44 and a pKi [4] of 8.96.
